The record followed here is publication PMC11850817 (Scientific Reports, 2025).

In one assay the target is MET (Homo sapiens, UniProt P08581). Briefly: Radiometric kinase assay. The class given is biochemical. Conditions: read-out: Kinase inhibition (%) MET.
The target in another assay is FGFR1 (Homo sapiens, UniProt P11362). Briefly: Radiometric kinase assay. The class given is biochemical. To be noted: read-out: Kinase inhibition (%) FGFR1.
A further assay addresses AKT1 (Homo sapiens, UniProt P31749). The assay is described as follows: Radiometric kinase assay. Conditions: read-out: Kinase inhibition (%) AKT1. The class given is biochemical.
For another assay, the system named is HT-29. The assay is described as follows: MTT antiproliferative assay, HT-29. It counts as cell-based, human. Conditions: Homo sapiens, HT-29, 72 h, read-out: IC50 HT-29. On the technique in general: Tetrazolium dyes change colour on reduction, which living cells bring about.
For another assay, the target named is IGF1R (Homo sapiens, UniProt P08069). Briefly: Radiometric kinase assay. Conditions: read-out: Kinase inhibition (%) IGF1R. The class given is biochemical.
A further assay addresses FLT4 (VEGFR3) (Homo sapiens, UniProt P35916). Briefly: Radiometric kinase assay. The class given is biochemical. To be noted: read-out: Kinase inhibition (%) FLT4 (VEGFR3).
The next assay concerns the target WEE1 (Homo sapiens, UniProt P30291). Briefly: Radiometric kinase assay. It counts as biochemical. Conditions: read-out: Kinase inhibition (%) WEE1.
The target in a further assay is PIK3CA (Homo sapiens, UniProt P42336). Briefly: Radiometric kinase assay. Conditions: read-out: Kinase inhibition (%) PIK3CA. It counts as biochemical.
Another assay has as its system AsPC-1 cells. Briefly: Cell cycle test, RNase/PI flow cytometry. The class given is cell-based, human. Conditions: AsPC-1, 3, 10, 30, 50 µM, 48 h.
The target of the next assay is MAPK1 (ERK2) (Homo sapiens, UniProt P28482). The assay is described as follows: Radiometric kinase assay. To be noted: read-out: Kinase inhibition (%) MAPK1 (ERK2). The class given is biochemical.
Sequence of MAPK1 (ERK2) (P28482 whole entry): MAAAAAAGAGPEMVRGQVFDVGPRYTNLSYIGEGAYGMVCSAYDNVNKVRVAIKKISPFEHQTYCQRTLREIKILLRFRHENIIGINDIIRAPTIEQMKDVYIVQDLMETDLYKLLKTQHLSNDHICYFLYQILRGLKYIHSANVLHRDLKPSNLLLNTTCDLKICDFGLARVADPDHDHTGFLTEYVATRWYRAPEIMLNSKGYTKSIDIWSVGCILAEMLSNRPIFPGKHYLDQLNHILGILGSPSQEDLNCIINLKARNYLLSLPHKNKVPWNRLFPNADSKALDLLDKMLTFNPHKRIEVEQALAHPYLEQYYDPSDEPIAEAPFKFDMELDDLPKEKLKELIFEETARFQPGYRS
The test system of assay [1] is EBC-1, AsPC-1, Mia-Paca-2, HT-29, MCF-7 cancer cells. The assay is described as follows: MTT antiproliferative assay, cancer cell lines summarised. Conditions: Homo sapiens, read-out: IC50 range against tested cell lines. It counts as cell-based, human.
In a further assay the target is CDK2/cyclin A (Homo sapiens, UniProt P24941). Briefly: Radiometric kinase assay. The class given is biochemical. Conditions: read-out: Kinase inhibition (%) CDK2/cyclin A.

Sequence of MET (P08581 25-1390): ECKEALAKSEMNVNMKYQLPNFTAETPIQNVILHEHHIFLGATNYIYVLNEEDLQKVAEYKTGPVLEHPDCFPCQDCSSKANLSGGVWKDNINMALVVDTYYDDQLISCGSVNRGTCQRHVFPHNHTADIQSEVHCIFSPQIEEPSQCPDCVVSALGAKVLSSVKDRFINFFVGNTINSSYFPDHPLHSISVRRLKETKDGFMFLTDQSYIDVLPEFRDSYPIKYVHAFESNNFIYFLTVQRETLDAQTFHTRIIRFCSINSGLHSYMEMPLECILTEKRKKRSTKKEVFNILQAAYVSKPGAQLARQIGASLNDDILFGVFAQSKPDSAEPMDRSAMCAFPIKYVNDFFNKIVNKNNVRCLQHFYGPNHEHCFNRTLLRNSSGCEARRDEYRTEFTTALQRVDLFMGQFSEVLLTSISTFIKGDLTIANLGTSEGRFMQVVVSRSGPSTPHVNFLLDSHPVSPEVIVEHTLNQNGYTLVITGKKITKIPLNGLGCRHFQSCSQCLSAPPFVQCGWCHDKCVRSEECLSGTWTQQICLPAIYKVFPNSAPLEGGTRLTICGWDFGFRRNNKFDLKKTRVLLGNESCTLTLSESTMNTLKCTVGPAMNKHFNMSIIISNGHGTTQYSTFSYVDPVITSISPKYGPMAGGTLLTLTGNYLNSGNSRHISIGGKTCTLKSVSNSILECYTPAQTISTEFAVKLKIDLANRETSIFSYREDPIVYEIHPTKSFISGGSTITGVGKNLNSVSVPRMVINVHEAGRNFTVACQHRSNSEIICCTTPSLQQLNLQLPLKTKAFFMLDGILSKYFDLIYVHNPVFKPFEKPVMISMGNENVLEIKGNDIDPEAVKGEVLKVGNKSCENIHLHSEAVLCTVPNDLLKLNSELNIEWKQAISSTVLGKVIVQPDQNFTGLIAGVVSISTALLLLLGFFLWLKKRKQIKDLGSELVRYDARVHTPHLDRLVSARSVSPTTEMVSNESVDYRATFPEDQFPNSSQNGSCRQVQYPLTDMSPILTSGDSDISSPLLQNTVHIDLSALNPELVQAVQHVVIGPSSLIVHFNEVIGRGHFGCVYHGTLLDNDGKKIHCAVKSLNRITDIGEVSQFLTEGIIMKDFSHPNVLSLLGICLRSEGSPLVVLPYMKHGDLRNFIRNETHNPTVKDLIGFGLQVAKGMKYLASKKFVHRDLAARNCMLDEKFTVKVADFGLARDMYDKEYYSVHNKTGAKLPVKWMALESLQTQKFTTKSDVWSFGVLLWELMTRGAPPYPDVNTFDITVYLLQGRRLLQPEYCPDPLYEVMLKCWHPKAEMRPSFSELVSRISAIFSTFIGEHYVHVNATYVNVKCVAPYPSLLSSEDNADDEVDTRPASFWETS
Sequence of WEE1 (P30291 whole entry): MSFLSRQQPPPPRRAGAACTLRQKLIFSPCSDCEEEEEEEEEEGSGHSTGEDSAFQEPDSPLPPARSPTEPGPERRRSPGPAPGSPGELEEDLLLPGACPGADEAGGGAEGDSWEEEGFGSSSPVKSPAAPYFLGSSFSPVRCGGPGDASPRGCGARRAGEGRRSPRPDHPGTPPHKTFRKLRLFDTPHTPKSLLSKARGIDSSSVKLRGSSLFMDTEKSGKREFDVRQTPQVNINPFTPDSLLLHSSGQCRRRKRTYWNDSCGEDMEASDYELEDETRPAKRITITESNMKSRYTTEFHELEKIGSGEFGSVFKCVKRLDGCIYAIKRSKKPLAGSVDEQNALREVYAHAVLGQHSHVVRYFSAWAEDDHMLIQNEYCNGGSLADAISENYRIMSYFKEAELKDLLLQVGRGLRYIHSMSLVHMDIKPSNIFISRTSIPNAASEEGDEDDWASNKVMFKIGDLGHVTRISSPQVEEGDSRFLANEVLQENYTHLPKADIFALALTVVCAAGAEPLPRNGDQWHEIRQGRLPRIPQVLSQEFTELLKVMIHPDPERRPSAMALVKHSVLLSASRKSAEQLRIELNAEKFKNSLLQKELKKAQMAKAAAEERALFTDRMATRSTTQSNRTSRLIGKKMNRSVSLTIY
Sequence of FGFR1 (P11362 22-822): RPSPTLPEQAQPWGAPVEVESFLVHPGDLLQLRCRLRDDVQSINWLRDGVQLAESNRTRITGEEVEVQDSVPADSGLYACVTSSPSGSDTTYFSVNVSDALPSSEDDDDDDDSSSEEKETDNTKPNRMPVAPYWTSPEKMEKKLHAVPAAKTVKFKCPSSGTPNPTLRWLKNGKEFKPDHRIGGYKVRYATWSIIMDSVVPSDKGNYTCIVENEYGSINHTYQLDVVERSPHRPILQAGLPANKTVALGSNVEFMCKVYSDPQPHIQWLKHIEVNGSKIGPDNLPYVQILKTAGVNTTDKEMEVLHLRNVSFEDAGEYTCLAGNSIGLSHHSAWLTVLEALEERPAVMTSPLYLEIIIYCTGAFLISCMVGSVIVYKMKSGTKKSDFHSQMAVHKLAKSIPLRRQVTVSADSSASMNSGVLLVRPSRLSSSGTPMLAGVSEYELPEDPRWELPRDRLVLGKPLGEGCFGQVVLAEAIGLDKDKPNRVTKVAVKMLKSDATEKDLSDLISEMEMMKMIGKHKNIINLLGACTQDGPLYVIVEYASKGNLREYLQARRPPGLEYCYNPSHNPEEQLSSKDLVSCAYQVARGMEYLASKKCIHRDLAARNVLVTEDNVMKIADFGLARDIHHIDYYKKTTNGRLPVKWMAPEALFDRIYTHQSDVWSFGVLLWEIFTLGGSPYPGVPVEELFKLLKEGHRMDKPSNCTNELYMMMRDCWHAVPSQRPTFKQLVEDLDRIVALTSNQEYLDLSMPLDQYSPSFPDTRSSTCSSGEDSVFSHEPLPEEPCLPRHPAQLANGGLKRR
Sequence of FLT4 (VEGFR3) (P35916 25-1363): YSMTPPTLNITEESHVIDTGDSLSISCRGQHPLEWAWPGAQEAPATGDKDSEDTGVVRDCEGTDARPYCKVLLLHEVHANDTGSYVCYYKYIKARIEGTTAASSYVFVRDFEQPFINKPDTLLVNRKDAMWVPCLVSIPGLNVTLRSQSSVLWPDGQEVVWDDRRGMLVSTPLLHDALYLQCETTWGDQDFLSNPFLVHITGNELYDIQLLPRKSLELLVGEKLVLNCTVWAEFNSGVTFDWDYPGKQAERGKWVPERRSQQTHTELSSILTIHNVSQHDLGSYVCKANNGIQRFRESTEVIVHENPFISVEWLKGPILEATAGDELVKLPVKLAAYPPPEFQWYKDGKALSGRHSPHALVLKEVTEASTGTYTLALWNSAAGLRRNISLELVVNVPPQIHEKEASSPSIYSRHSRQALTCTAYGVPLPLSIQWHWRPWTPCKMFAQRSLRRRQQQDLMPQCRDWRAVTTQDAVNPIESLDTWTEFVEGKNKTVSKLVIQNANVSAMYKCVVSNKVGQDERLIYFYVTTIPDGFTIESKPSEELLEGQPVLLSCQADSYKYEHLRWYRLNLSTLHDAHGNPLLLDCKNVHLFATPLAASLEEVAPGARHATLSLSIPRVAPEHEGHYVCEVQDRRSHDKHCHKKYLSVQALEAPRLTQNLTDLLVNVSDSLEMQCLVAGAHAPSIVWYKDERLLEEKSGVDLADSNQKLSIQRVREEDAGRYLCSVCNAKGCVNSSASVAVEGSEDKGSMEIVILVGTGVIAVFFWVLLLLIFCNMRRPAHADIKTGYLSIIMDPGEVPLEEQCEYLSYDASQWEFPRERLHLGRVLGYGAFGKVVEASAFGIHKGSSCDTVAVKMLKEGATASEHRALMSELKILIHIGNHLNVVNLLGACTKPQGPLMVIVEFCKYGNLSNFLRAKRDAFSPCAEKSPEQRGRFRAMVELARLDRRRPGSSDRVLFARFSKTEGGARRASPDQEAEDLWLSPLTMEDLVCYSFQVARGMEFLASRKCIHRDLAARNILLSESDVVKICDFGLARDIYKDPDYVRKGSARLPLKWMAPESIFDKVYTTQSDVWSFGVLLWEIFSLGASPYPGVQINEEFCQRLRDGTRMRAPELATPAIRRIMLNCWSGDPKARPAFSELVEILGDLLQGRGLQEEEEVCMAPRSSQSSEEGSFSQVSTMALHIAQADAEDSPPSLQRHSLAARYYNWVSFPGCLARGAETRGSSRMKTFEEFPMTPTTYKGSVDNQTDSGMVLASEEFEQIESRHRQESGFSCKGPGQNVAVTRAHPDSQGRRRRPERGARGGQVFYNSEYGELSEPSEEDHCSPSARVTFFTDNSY
Sequence of AKT1 (P31749 whole entry): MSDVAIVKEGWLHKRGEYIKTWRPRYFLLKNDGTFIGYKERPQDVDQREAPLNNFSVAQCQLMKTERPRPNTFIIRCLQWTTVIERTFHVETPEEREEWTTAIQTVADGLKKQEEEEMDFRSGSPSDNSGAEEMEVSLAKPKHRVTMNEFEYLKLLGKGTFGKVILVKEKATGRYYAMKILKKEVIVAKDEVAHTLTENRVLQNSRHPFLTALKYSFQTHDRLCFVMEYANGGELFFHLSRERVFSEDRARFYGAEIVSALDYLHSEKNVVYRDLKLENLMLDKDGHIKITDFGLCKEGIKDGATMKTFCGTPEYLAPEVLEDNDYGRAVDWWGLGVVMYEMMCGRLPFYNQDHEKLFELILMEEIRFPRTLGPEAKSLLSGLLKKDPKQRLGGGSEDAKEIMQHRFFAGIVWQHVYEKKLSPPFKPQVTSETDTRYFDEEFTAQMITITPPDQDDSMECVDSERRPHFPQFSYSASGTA

By IC50 is commonly meant the concentration that inhibits the measured activity by half. `O=C1C=C(Nc2ccc(OCc3cn(Cc4ccc(Cl)c(Cl)c4)nn3)cc2)C(=O)c2ccccc21` [Compound 4e, 2-((4-((1-(3,4-Dichlorobenzyl)−1H-1,2,3-triazol-4-yl)methoxy)phenyl)amino) naphthalene-1,4-dione]: the inhibition at 10 µM on MET was -14%; at FGFR1 it was -5%; on AKT1, 15%; on IGF1R it was -11%; at FLT4 (VEGFR3) it was 30%; at WEE1 it was -4%. Also, the values for the inhibition at 10 µM at PIK3CA, at MAPK1 (ERK2) and on CDK2/cyclin A were 3%, 6% and 9%, respectively. The results for the IC50 (in the assay on HT-29; in assay [1]) were 600 ± 200 nM and 300 to 7100 nM, respectively. The “Effect on cell cycle distribution (S and G2/M phases)” value in the assay with AsPC-1 cells is “dose-dependently increased the number of cells in the S phase and simultaneously reduced the cells in G2/M phase”. The “Effect on sub-G1 and G0/G1 phases” value in the assay on AsPC-1 cells is listed as “increase in cells in sub-G1 phase, while reducing G0/G1 cells”.
